Calls of active or inactive are those of the source. No cut-off for these calls is given here.
Columns and labels:
HepG2 [1] = assay: Cytotoxicity against human HepG2 cells assessed as reduction in cell viability incubated for 24 hrs by MTT assay; type: functional, cell-based
MDA-MB-231 [2] = assay: Induction of apoptosis in human MDA-MB-231 cells assessed as viable cells at IC50 incubated for 72 hrs by Alexa Fluor488-annexin V/PI staining based flow cytometric analysis (Rvb= 99.4 %); type: functional
MDA-MB-231 [3] = assay: Induction of apoptosis in human MDA-MB-231 cells assessed as early apoptotic cells at IC50 incubated for 72 hrs by Alexa Fluor488-annexin V/PI staining based flow cytometric analysis (Rvb= 0.6 %); type: functional
HepG2 [4] = assay: Induction of apoptosis in human HepG2 cells assessed as shrinkage of nucleus by measuring orange coloured fluorescence at IC50 incubated for 24 hrs by EtBr/AO staining based fluorescence microscopic analysis; type: functional, cell-based
HepG2 [5] = assay: Induction of apoptosis in human HepG2 cells assessed as blebbing of nucleus by measuring orange coloured fluorescence at IC50 incubated for 24 hrs by EtBr/AO staining based fluorescence microscopic analysis; type: functional, cell-based
HepG2 [6] = assay: Induction of apoptosis in human HepG2 cells assessed as apoptotic index at IC50 incubated for 24 hrs by EtBr/AO staining based fluorescence microscopic analysis (reference value: 1.99 %); type: functional
HepG2 [7] = assay: Induction of ROS production in human HepG2 cells at IC50 incubated for 3 hrs by fluorescence microscopic analysis; type: functional, cell-based
HepG2 [8] = assay: Induction of mitochondrial membrane potential disruption in human HepG2 cells assessed as green fluorescence at IC50 incubated for 24 hrs by JC-10 staining based fluorescence assay; type: functional, cell-based
Chorioallantoic membrane = assay: Antiangiogenic activity in chicken fertilized egg chorioallantoic membrane assessed as reduction in membrane growth at 0.01 uM measured upto 72 hrs by CAM assay relative to control; type: functional, tissue-based; details: Gallus gallus, time hrs <=72
HUVEC = assay: Antiproliferative activity against human HUVEC assessed as reduction in cell viability incubated for 24 hrs by MTT assay; type: functional, cell-based
[9] = Inhibition of VEGFR2 expression in human HUVEC assessed as mean fluorescence intensity at IC50 incubated for 48 hrs by fluorescence microscopic analysis (reference value: 1.448 +/- 0.01); type: functional
HepG2 [10] = assay: Antiproliferative activity against human HepG2 cells harboring CD44+ assessed as reduction in cell viability incubated for 24 hrs by MTT assay; type: functional, cell-based
HepG2 [11] = assay: Antiproliferative activity against human HepG2 cells harboring CD133+ assessed as reduction in cell viability incubated for 24 hrs by MTT assay; type: functional, cell-based
HepG2 [12] = assay: Induction of cell cycle arrest in human HepG2 cells harboring CD133+ assessed as increase in S phase arrest at IC50 concentration incubated for 48 hrs by PI staining based flow cytometry analysis; type: functional
HepG2 [13] = assay: Inhibition of epithelial-mesenchymal transition in TGF-beta-induced human HepG2 cells assessed as SNAIL expression at IC50 incubated for 48 hrs by flow cytometry analysis (reference value: 97.78 %); type: functional; parameters: scale not given: the % may be the effect or the level left
[14] = Toxicity in female Wistar rat assessed as difficult to breathe at 2000 mg/kg, po observed for 48 hrs; type: organism-based; details: in vivo
[15] = Toxicity in Wistar rat assessed as body weight loss at 2000 mg/kg, po and observed for 1 week; type: organism-based; details: in vivo, 168 h, time 1 weeks
[16] = Toxicity in Wistar rat assessed as effect on water consumption at 5 to 2000 mg/kg, po and observed for 14 days; type: organism-based; details: in vivo, 336 h, dose 5-2000 mg/kg, time 14 day
[17] = Toxicity in Wistar rat assessed as effect on hematological parameters at 5 to 2000 mg/kg, po and measured on day 15; type: organism-based; details: in vivo, 360 h, dose 5-2000 mg/kg, time 15 day
[18] = Toxicity in Wistar rat assessed as effect on SGOT level at 5 to 2000 mg/kg, po and measured on day 15; type: organism-based; details: in vivo, 360 h, dose 5-2000 mg/kg, time 15 day
[19] = Toxicity in Wistar rat assessed as effect on total bilirubin level in serum at 5 to 2000 mg/kg, po and measured on day 15; type: organism-based; details: in vivo, 360 h, dose 5-2000 mg/kg, time 15 day
[20] = Toxicity in Wistar rat assessed as effect on urea level in serum at 5 to 2000 mg/kg, po and measured on day 15; type: organism-based; details: in vivo, 360 h, dose 5-2000 mg/kg, time 15 day
[21] = Toxicity in Wistar rat assessed as effect on creatinine level in serum at 5 to 2000 mg/kg, po and measured on day 15; type: organism-based; details: in vivo, 360 h, dose 5-2000 mg/kg, time 15 day
[22] = Toxicity in Wistar rat assessed as normal histoarchitecture of alveoli and bronchi in lungs without inflammatory or pathological changes at 2000 mg/kg, po and measured on day 15 by microscopic analysis; type: organism-based; details: in vivo, 360 h, time 15 day
[23] = Toxicity in Wistar rat assessed as normal liver parenchyma with normal hepatocytes arranged in hepatic strands and normal vascular tissue and bile duct without inflammatory or pathological changes at 2000 mg/kg, po and measured on day 15 by microscopic analysis; type: organism-based; details: in vivo, 360 h, time 15 day
[24] = Toxicity in Wistar rat assessed as normal renal parenchyma with intact renal tubules and glomeruli without inflammatory or pathological changes at 2000 mg/kg, po and measured on day 15 by microscopic analysis; type: organism-based; details: in vivo, 360 h, time 15 day
[25] = Cmax in Wistar rat at 5 mg/kg, po measured upto 72 hrs by HPLC-MS analysis; type: ADME, organism-based; parameters: route oral, dose 5 mg/kg, time <=72; details: in vivo
[26] = Tmax in Wistar rat at 5 mg/kg, po measured upto 72 hrs by HPLC-MS analysis; type: ADME, organism-based; details: in vivo
[27] = AUC (0 to infinity) in Wistar rat at 5 mg/kg, po by HPLC-MS analysis; type: ADME, organism-based; parameters: route oral, time infinity, dose 5 mg/kg; details: in vivo
[28] = AUMC (0 to infinity) in Wistar rat at 5 mg/kg, po by HPLC-MS analysis; type: ADME, organism-based; details: in vivo
[29] = Half life in Wistar rat at 5 mg/kg, po measured upto 72 hrs by HPLC-MS analysis; type: ADME, organism-based; details: in vivo
HepG2 [30] = assay: Induction of apoptosis in human HepG2 cells assessed as early apoptotic cells by measuring yellowish green coloured nucleus at IC50 incubated for 24 hrs by EtBr/AO staining based fluorescence microscopic analysis; type: functional, cell-based
HepG2 [31] = assay: Induction of apoptosis in human HepG2 cells assessed as necrotic cells by measuring orange-red coloured flourescence at IC50 incubated for 24 hrs by EtBr/AO staining based fluorescence microscopic analysis; type: functional, cell-based
HepG2 [32] = assay: Induction of apoptosis in human HepG2 cells assessed as necrotic cells by measuring intense red fluorescence at IC50 incubated for 24 hrs by Alexa Fluor488-annexin V/PI staining based fluorescence analysis; type: functional, cell-based
[33] = Inhibition of VEGFR2 expression in human HUVEC at IC50 incubated for 48 hrs by fluorescence microscopic analysis relative to control; type: functional
[34] = Toxicity in Wistar rat assessed as normal ovary with primary to tertiary developing follicles and mature follicles at 2000 mg/kg, po and measured on day 15 by microscopic analysis; type: organism-based; details: in vivo, 360 h, time 15 day
HepG2 [35] = assay: Antimigratory activity against human HepG2 cells assessed as reduction in cell migration at IC50 by transwell migration assay; type: functional, cell-based; details: TDE = time-dependent effect

CC(=O)Nc1ccc(Oc2cccc3c(NC(=O)Nc4cccc(C(F)(F)F)c4)cccc23)cc1
inhibition (HepG2 [1]): Dose-dependent effect
IC50 (HepG2 [1]; HepG2, 24 h): 258 nM
Activity (MDA-MB-231 [2]): 27.3%
Activity (MDA-MB-231 [3]): 68.2%
Activity (HepG2 [4]): Active
Activity (HepG2 [5]): Active
Activity (HepG2 [6]): 86.66%
Activity (HepG2 [7]): Active
Activity (HepG2 [8]): Active
inhibition (Chorioallantoic membrane): > 50%
IC50 (HUVEC): 9.64 µM
inhibition (HUVEC): Dose-dependent effect
Flu intensity [9]: 1
inhibition (HepG2 [10]): Dose-dependent effect
IC50 (HepG2 [10]; HepG2, 24 h): 3.29 µM
inhibition (HepG2 [11]): Dose-dependent effect
IC50 (HepG2 [11]; HepG2, 24 h): 2200 nM
Activity (HepG2 [12]): Active
Activity (HepG2 [13]): 10.26%
Activity [14]: Toxic
Activity [15]: Toxic
Activity [16]: Non-Toxic
Activity [17]: Non-Toxic
Activity [18]: Non-Toxic
Activity [19]: Non-Toxic
Activity [20]: Non-Toxic
Activity [21]: Non-Toxic
Activity [22]: Non-Toxic
Activity [23]: Non-Toxic
Activity [24]: Non-Toxic
Cmax [25]: 39700 ng/mL
Tmax [26]: 6 h
AUC(0-inf) [27]: 625 µg·h/mL
AUMC [28]: 8929.284 ug/ml.hr^2
half-life [29]: 716 min
Activity (HepG2 [30]): Active
Activity (HepG2 [31]): Active
Activity (HepG2 [32]): Active
fold change (FC) [33]: 0.37
Activity [34]: Non-Toxic
Activity (HepG2 [35]): Tde

— ChEMBL document CHEMBL4706603, “Discovery of VEGFR-2 inhibitors exerting significant anticancer activity against CD44+ and CD133+ cancer stem cells (CSCs): Reversal of TGF-β induced epithelial-mesenchymal transition (EMT) in hepatocellular carcinoma” (Eur J Med Chem, 2020)
